{"source": "patent US20240261236A1", "about": "“METHODS OF USING NMDA RECEPTOR ANTAGONISTS” (Seelos Therapeutics, Inc., priority 2021, published 2024)", "key": {"[1]": {"tested_on": "adults with major depressive disorder (MDD) who are at imminent risk of suicide", "assay": "CADSS dissociation, Phase 2 Part 1"}, "[2]": {"tested_on": "adults with major depressive disorder (MDD) who are at imminent risk of suicide", "assay": "S-STS CMCM clinician judgment, risk of suicide at this time", "format": "in vivo, human", "conditions": "90 mg IN+SOC; for S-STS CMCM score (range 0-9; risk of suicide at this time, FIGS. 20A-20B): 24 hours post-administration", "excerpt": "(§1) The S-STS CMCM (version 01/01/19) is a clinician-rated outcome measure which assesses SI/B on a standard 22-item scale, as well as multiple patient and clinician-rated items. The first 16 items are rated on a Likert-type scale ranging from “not at all” (0 units) to “extremely” (4 units), where select scoring (i.e., 4 specific items are scored based on the highest score on 2 of those items) yields a total score ranging from 0 units to 52 units. The final 6 items are used only when the patient misses a visit and is unable to complete the scale; if that missed visit is due to attempted or completed suicide, the possible maximum score is 100. The CMCM also yields 5 different single-item global assessments: 1) subject-rated likelihood of a suicide attempt; 2) subject-rated treatment needed; 3) clinician global severity of suicidal impulses, thoughts, and behaviors; 4) clinician judgment of suicide risk at this time and level of management needed for suicidality; and 5) clinician judgment of subject's likelihood of making a suicide attempt or of dying by suicide in the next 7 days.\n(§2) The secondary endpoints are the change from baseline at 24 hours, as well as at Day 16, in the following: • (1) S-STS total score • (2) MADRS Total at Day 16 (only) • (3) Clinical Global Impression (CGI) of Severity for SI/B (CGIS-SI/B) and Change in SI/B (CGIC-SI/B) • (4) Patient Global Impression (PGI) of Severity for SI/B (PGIS-SI/B) and Change in SI/B (PGIC-SI/B • (5) S-STS Clinician-Rated Global Severity of Suicidal Impulses, Thoughts, and Behaviors • (6) S-STS Clinician judgment of subject's risk of a suicide attempt or death by suicide at this time • (7) S-STS Clinician judgment of subject's likelihood (risk) of making a suicide attempt or of dying by suicide in the next 7 days • (8) S-STS Subject-rated global severity of suicidal impulses, thoughts, and behavior • (9) S-STS Subject-rated treatment needed score • (10) MADRS item 10 response rate (response ≤3 units) • (11) MADRS Total response (total score ≥50% reduction from baseline) • (12) MADRS Total remission (total score ≤12 units)"}, "[3]": {"tested_on": "adults with major depressive disorder (MDD) who are at imminent risk of suicide", "assay": "S-STS CMCM Risk of Suicide at Within the Next 7 Days", "format": "in vivo, human", "conditions": "90 mg IN+SOC", "excerpt": "as §1, §2"}, "[4]": {"tested_on": "adults with major depressive disorder (MDD) who are at imminent risk of suicide", "assay": "S-STS CMCM total score, Phase 2 Part 1", "format": "in vivo, human", "conditions": "for S-STS CMCM score: 90 mg IN+SOC, 24 hours post-administration; for S-STS mean score: baseline 21.9", "excerpt": "as §1, §2\nSubjects who were hospitalized due to an imminent risk of suicide were enrolled according to the inclusion criteria. The trial was initiated in the hospital and all subjects received standard of care (SOC) therapy for the duration of the study. Subjects were released from the hospital (approximately Day 7) once stabilized and continued the study in an outpatient manner. […] Following the conclusion of the treatment period, a 2-week safety follow-up was also conducted to determine maintenance of treatment efficacy and to monitor for any additional safety events. See, FIG. 26."}}}
{"compound": "CNC1(c2ccccc2Cl)CCCCC1=O", "note": "(racemic) [intranasal racemic ketamine, 1:1 mixture of the two enantiomers of ketamine: (R)-2-(2-chlorophenyl)-2-(methylamino)cyclohexanone and (S)-2-(2-chlorophenyl)-2-(methylamino)cyclohexanone]", "values": [{"measurement": "CADSS score", "setting": "[1]; 90 mg IN+SOC, Subject 1, all assessments, threshold for dissociation >4 units", "result": "zero"}, {"measurement": "CADSS score", "setting": "[1]; 90 mg IN+SOC, Subject 2, 40 minutes post-administration", "result": 2, "unit": "units"}, {"measurement": "CADSS score", "setting": "[1]; 90 mg IN+SOC, Subject 2, 1 hour post-administration", "result": "zero"}, {"measurement": "clinically relevant dissociation", "setting": "[1]; 90 mg IN+SOC, Subjects 1 and 2", "result": "neither subject exhibited clinically relevant dissociation"}, {"measurement": "clinically meaningful sedation or dissociation", "setting": "[1]; 90 mg IN+SOC, entire patient cohort to the Day 29/30 endpoint", "result": "no clinically meaningful sedation or dissociation"}, {"measurement": "CADSS change from baseline (at 40 minutes)", "setting": "[1]; Day 4 (after second dose)", "result": 2.3}, {"measurement": "CADSS change from baseline (at 40 minutes)", "setting": "[1]; Day 8 (after third dose)", "result": 0.4}, {"measurement": "subjects with no dissociation (total CADSS score >4 units = dissociation)", "setting": "[1]; Days 1 and 4", "result": "four"}, {"measurement": "subjects reporting dissociation", "setting": "[1]; after Day 4 (on Day 11 at 40 minutes), 7 subjects", "result": 1, "unit": "subject"}, {"measurement": "CADSS change from baseline (at 40 minutes)", "setting": "[1]; after first dose", "result": 3.8}, {"measurement": "S-STS CMCM score (range 0-9; risk of suicide at this time, FIGS. 20A-20B)", "setting": "[2]; Subject 1, baseline 7 units", "result": 3, "unit": "units"}, {"measurement": "S-STS CMCM score (range 0-9; risk of suicide at this time)", "setting": "[2]; Subject 1, Day 9", "result": 2, "unit": "units"}, {"measurement": "S-STS CMCM score (range 0-9; risk of suicide at this time, FIGS. 20A-20B)", "setting": "[2]; Subject 2, from 7 units", "result": 3, "unit": "units"}, {"measurement": "S-STS CMCM score (range 0-9; risk of suicide at this time)", "setting": "[2]; Subject 2, Day 9", "result": "zero"}, {"measurement": "S-STS CMCM score (range 0-9; risk of suicide at this time)", "setting": "[2]; Subjects 1 and 2, Day 8", "result": 2, "unit": "units"}, {"measurement": "S-STS CMCM Risk of Suicide at Within the Next 7 Days score", "setting": "[3]; Subject 1, 24 hours post-administration, from 5 units, range 1-10", "result": 2, "unit": "units"}, {"measurement": "S-STS CMCM Risk of Suicide at Within the Next 7 Days score", "setting": "[3]; Subject 2, 24 hours post-administration, baseline 7 units", "result": 1, "unit": "unit"}, {"measurement": "S-STS CMCM Risk of Suicide at Within the Next 7 Days score", "setting": "[3]; the scores (Subjects 1 and 2), Day 4", "result": 1, "unit": "unit"}, {"measurement": "S-STS CMCM Risk of Suicide at Within the Next 7 Days score", "setting": "[3]; the scores (Subjects 1 and 2), Day 8", "result": 0, "unit": "units"}, {"measurement": "S-STS CMCM score", "setting": "[4]; Subject 1, from 18 units, range 0-52", "result": "zero"}, {"measurement": "S-STS CMCM score", "setting": "[4]; Subject 2, from 22 units", "result": 3, "unit": "units"}, {"measurement": "S-STS CMCM mean (SD) change from baseline", "setting": "[4]; 17 subjects enrolled, 24 hours post-dose", "result": "−20.6 (6.34)"}, {"measurement": "S-STS CMCM mean (SD) change from baseline", "setting": "[4]; 17 subjects enrolled, Day 16", "result": "−20.9 (3.66)"}, {"measurement": "S-STS: patients (1 patient) with 4 points within-patient change", "setting": "[4]; Day 1", "result": 6, "unit": "%"}, {"measurement": "S-STS: patients with >14 points within-patient change from baseline", "setting": "[4]; Day 1", "result": 94, "unit": "%"}, {"measurement": "S-STS mean score", "setting": "[4]; Day 1", "result": 1.7}, {"measurement": "S-STS mean score", "setting": "[4]; Day 16", "result": 0.0}, {"measurement": "S-STS mean score", "setting": "[4]; Day 29", "result": 0.0}, {"measurement": "S-STS CMCM mean (SD) change from baseline", "setting": "[4]; final follow-up on Day 29/30", "result": "−21.1 (3.71)"}, {"measurement": "mean S-STS CMCM score", "setting": "[4]; final follow-up on Day 29/30", "result": "0.0 (0.00)"}]}
